{"source": "patent US10947229B2", "about": "“Dimethyl amino azetidine amides as JAK inhibitors” (THERAVANCE BIOPHARMA R&D IP, LLC, priority 2018, dated 2021)", "key": {"[1]": {"test_system": "IL-2 stimulated pSTAT5 in Tall-1 T cells", "assay": "Inhibition of IL-2 stimulated pSTAT5 in Tall-1 T cells", "format": "cell-based", "conditions": "IL-2 stimulated pSTAT5, Tall-1 human T cell line; read-out: Tall-1 pIC50 (converted)", "protocol": "The potency of test compounds for inhibition of interleukin-2 (IL-2) stimulated STAT5 phosphorylation was measured in the Tall-1 human T cell line (DSMZ) using AlphaLisa. Because IL-2 signals through JAK1/3, this assay provides a measure of JAK1/3 cellular potency.\nPhosphorylated STAT5 was measured via the AlphaLISA SureFire Ultra pSTAT5 (Tyr694/699) kit (PerkinElmer).\nHuman T cells from the Tall-1 cell line were cultured in a 37° C., 5% CO2 humidified incubator in RPMI (Life Technologies) supplemented with 15% Heat Inactivated Fetal Bovine Serum (FBS, Life Technologies), 2 mM Glutamax (Life Technologies), 25 mM HEPES (Life Technologies) and 1× Pen/Strep (Life Technologies). Compounds were serially diluted in DMSO and dispensed acoustically to empty wells. Assay media (phenol red-free DMEM (Life Technologies) supplemented with 10% FBS (ATCC)) was dispensed (4 μL/well) and plates shaken at 900 rpm for 10 mins. Cells were seeded at 45,000 cells/well in assay media (4 μL/well), and incubated at 37° C., 5% CO2 for 1 hour, followed by the addition of IL-2 (R&D Systems; final concentration 300 ng/mL) in pre-warmed assay media (4 μL) for 30 minutes. After cytokine stimulation, cells were lysed with 6 ul of 3× AlphaLisa Lysis Buffer (PerkinElmer) containing 1× PhosStop and Complete tablets (Roche). The lysate was shaken at 900 rpm for 10 minutes at room temperature (RT). Phosphorylated STAT5 was measured via the pSTAT5 AlphaLisa kit (PerkinElmer). Freshly prepared acceptor bead mixture was dispensed onto lysate (5 μL) under green filtered <100 lux light. Plates were shaken at 900 rpm for 2 mins, briefly spun down, and incubated for 2 hrs at RT in the dark. Donor beads were dispensed (5 μL) under green filtered <100 lux light. Plates were shaken at 900 rpm for 2 minutes, briefly spun down, and incubated overnight at RT in the dark. Luminescence was measured with excitation at 689 nm and emission at 570 nm using an EnVision plate reader (PerkinElmer) under green filtered <100 lux light.\nTo determine the inhibitory potency of test compounds in response to IL-2, the average emission intensity of beads bound to pSTAT5 was measured in a human T cell line. IC50 values were determined from analysis of the inhibition curves of signal intensity versus compound concentration. Data are expressed as pIC50 (negative decadic logarithm IC50) values (mean±standard deviation)."}, "JAK2": {"target": "JAK2 (Homo sapiens (Human), UniProt O60674)", "sequence (O60674 whole entry)": "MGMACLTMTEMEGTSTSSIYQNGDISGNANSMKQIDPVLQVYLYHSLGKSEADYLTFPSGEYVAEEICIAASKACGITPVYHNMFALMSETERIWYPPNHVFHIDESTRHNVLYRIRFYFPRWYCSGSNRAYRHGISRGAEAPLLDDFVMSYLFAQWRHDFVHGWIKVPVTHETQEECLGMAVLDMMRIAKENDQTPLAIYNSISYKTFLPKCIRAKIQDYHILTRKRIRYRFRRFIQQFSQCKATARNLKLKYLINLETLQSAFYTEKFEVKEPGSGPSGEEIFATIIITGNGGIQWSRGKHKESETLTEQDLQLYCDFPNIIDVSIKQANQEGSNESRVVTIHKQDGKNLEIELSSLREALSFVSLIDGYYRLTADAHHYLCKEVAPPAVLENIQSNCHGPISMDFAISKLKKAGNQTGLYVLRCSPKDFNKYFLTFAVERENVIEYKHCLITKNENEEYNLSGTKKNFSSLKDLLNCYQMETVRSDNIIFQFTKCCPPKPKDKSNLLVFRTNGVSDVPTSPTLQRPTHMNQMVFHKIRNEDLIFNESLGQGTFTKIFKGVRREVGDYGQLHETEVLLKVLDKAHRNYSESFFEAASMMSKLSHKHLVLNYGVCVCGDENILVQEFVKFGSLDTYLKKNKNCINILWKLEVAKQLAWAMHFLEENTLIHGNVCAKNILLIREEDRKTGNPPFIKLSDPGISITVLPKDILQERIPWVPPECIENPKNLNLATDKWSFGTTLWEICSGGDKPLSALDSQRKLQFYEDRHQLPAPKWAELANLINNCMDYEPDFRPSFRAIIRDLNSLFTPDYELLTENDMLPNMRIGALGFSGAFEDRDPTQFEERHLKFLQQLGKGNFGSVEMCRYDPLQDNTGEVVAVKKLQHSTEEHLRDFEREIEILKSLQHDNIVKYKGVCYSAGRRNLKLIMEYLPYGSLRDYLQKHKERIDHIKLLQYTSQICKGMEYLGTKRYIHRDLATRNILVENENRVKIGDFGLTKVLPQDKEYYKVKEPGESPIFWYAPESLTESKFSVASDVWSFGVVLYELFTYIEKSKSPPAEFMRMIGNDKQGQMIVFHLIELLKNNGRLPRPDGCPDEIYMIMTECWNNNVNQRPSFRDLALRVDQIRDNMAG", "assay": "Biochemical JAK kinase assay (LanthaScreen), JAK2", "protocol": "(§1) Recombinant GST-tagged JAK enzymes and a GFP-tagged STAT1 peptide substrate were obtained from Life Technologies. Serially diluted compounds were pre-incubated with each of the four JAK enzymes and the substrate in white 384-well microplates (Corning) at ambient temperature for 1 h. ATP was subsequently added to initiate the kinase reactions in 10 μL total volume, with 1% DMSO. […] Kinase reactions were allowed to proceed for 1 hour at ambient temperature before a 10 μL preparation of EDTA (10 mM final concentration) and Tb-anti-pSTAT1 ([…]) antibody (Life Technologies, 2 nM final concentration) in TR-FRET dilution buffer (Life Technologies) was added. The plates were allowed to incubate at ambient temperature for 1 h before being read on the EnVision reader (Perkin Elmer). Emission ratio signals (520 nm/495 nm) were recorded and utilized to calculate the percent inhibition values based on DMSO and background controls. For dose-response analysis, percent inhibition data were plotted vs. compound concentrations, and IC50 values were determined from a 4-parameter robust fit model with the Prism software (GraphPad Software). Results were expressed as pIC50 (negative logarithm of IC50) and subsequently converted to pKi (negative logarithm of dissociation constant, Ki) using the Cheng-Prusoff equation. Test compounds having a lower Ki value or higher pKi value in the four JAK assays show greater inhibition of JAK activity."}, "Tyk2": {"target": "Tyk2 (Homo sapiens (Human), UniProt P29597)", "sequence (P29597 whole entry)": "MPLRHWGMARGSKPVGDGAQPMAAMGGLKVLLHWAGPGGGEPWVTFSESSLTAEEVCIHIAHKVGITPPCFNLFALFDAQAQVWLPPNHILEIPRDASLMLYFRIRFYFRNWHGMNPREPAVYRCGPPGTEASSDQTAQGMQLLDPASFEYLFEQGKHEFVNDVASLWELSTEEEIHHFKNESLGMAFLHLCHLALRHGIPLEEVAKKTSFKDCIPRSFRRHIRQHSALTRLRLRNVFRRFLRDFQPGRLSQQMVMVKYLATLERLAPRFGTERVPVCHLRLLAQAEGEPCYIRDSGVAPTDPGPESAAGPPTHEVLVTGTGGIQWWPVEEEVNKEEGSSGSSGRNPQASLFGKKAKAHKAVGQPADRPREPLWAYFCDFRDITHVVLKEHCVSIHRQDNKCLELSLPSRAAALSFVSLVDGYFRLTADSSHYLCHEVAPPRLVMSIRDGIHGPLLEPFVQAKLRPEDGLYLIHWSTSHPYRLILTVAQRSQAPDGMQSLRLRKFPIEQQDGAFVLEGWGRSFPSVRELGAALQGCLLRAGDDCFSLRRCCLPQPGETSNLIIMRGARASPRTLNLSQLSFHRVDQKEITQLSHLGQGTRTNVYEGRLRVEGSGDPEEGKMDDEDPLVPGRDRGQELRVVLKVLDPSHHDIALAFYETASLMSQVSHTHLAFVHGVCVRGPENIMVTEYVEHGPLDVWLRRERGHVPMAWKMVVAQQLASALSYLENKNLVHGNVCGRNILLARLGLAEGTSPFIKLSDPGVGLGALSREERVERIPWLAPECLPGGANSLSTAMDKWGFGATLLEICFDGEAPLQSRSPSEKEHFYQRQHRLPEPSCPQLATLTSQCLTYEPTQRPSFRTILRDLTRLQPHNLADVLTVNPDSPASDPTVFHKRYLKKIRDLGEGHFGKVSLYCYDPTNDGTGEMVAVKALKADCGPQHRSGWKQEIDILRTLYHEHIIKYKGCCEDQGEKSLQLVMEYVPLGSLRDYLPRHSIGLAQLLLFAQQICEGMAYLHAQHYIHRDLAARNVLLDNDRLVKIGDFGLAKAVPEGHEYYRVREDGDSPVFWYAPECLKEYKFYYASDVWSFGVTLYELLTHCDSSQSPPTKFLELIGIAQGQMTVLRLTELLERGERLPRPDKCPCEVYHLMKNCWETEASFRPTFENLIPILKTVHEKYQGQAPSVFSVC", "assay": "Biochemical JAK kinase assay (LanthaScreen), Tyk2", "protocol": "as §1, with “equation.” for “equation. Test compounds having a lower Ki value or higher pKi value in the four JAK assays show greater inhibition of JAK activity.”"}, "JAK3": {"target": "JAK3 (Homo sapiens (Human), UniProt P52333)", "sequence (P52333 whole entry)": "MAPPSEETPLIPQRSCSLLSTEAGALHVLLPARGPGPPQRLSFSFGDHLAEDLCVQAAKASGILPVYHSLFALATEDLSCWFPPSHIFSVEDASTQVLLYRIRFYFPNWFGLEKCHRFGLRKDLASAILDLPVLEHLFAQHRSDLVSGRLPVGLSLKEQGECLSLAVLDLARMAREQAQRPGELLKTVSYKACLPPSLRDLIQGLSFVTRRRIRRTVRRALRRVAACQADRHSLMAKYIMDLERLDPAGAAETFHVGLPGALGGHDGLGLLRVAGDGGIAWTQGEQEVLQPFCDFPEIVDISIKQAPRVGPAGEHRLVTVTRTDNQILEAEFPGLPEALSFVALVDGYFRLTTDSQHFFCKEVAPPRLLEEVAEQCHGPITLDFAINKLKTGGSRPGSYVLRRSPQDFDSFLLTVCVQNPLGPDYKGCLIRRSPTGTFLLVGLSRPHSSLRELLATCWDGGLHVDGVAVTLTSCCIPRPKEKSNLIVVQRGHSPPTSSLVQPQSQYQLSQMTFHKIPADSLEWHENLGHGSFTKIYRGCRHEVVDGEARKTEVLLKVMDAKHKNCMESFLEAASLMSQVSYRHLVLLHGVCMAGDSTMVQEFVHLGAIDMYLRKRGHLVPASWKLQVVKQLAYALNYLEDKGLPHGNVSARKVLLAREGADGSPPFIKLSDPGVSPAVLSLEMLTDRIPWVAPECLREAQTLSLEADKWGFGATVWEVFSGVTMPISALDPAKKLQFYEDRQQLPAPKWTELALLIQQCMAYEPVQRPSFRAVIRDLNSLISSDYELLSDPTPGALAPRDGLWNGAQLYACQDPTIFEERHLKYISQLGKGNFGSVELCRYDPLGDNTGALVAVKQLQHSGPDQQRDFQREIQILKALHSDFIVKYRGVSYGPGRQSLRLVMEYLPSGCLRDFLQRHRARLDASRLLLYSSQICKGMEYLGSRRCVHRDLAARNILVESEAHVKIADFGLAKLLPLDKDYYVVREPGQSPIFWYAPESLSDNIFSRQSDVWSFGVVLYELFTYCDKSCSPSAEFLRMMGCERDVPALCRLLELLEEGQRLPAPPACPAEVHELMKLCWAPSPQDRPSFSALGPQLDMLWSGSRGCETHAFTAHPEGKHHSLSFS", "assay": "Biochemical JAK kinase assay (LanthaScreen), JAK3", "protocol": "as §1, with “equation.” for “equation. Test compounds having a lower Ki value or higher pKi value in the four JAK assays show greater inhibition of JAK activity.”"}, "Lung S9 metabolism": {"assay": "Lung S9 metabolism", "format": "in vitro ADME, human", "conditions": "for Compound Remaining at 60 min (%) / microsomal CLint at 1 µM: human lung S9, 1 μM compound, 1 mg/mL S9 protein; for Sulfate Appearance: human lung S9, qualitative O-sulfate metabolite peak; for microsomal CLint at 1 µM: human lung S9 fraction, pH 7.4, NADPH and PAPS, read-out: Clearance", "protocol": "The time 0, 15, 30, and 60 minute samples were analyzed for parent compound by high resolution LC-MS/MS. Lung S9 fractions from human (lot 1410245) were purchased from XenoTech LLC (Lenexa, Kans.). NADPH (Sigma Aldrich, N1630) and 3-phosphoadenosine 5-phosphosulfate (PAPS) (Sigma Aldrich, A1651) were purchased from Sigma Aldrich (St. Louis, Mo.). Acetonitrile and water were obtained from VWR (Radnor, Pa.) and were of HPLC grade or better. Raloxifene and formic acid was purchased from Sigma Aldrich (St. Louis, Mo.). Lung S9 incubations were performed in a water bath at 37° C. in a 96-well polypropylene plate. […] Louis, Mo.), 3 mM magnesium chloride (Sigma Aldrich, M1028) and in the presence of 100 μM PAPS (Sigma-Aldrich, St. […] Incubation volumes consisted of 400 μL and time points were taken at 0, 15, 30, and 60 minutes by the removal of a 70 μL aliquot and dilution into 140 μL acetonitrile (0% formic acid). All samples were centrifuged at 2250 g for 10 minutes at 5° C. Supernatant […] was taken from the centrifuged samples and diluted into 100 μL HPLC water containing internal standard. The samples were run on a Dionex Ultimate 3000 Auto sampler and analyzed using a Thermo Q-Exactive High Resolution Mass Spectrometer (Thermo, Waltham, Mass.) in Full Scan mode in conjunction with an Atlantis T3 column 3 μM-2.1×50 mm (Waters Inc., 186003717). Mobile Phase A consisted of Water+0.2% formic acid and Mobile Phase B consisted of acetonitrile +0.2% formic acid. Peak integration was accomplished using Gubbs GMSU software (Gubbs Inc., Alpharetta, Ga.). For each sample, peak area ratios were calculated by dividing the analyte peak area by the internal standard peak area. For each incubation, the peak area ratios of the analytes in each t0 was set to 100%, and the peak areas ratios from the 60 minute samples were converted to percentages remaining relative to the corresponding t0. Determination of sulfate metabolite formation was made qualitatively by observation of early-eluting peak in the parent ion channel which, based on historical internal data, corresponded to the O-sulfate metabolite of each parent compound."}, "JAK1": {"target": "JAK1 (Homo sapiens (Human), UniProt P23458)", "sequence (P23458 whole entry)": "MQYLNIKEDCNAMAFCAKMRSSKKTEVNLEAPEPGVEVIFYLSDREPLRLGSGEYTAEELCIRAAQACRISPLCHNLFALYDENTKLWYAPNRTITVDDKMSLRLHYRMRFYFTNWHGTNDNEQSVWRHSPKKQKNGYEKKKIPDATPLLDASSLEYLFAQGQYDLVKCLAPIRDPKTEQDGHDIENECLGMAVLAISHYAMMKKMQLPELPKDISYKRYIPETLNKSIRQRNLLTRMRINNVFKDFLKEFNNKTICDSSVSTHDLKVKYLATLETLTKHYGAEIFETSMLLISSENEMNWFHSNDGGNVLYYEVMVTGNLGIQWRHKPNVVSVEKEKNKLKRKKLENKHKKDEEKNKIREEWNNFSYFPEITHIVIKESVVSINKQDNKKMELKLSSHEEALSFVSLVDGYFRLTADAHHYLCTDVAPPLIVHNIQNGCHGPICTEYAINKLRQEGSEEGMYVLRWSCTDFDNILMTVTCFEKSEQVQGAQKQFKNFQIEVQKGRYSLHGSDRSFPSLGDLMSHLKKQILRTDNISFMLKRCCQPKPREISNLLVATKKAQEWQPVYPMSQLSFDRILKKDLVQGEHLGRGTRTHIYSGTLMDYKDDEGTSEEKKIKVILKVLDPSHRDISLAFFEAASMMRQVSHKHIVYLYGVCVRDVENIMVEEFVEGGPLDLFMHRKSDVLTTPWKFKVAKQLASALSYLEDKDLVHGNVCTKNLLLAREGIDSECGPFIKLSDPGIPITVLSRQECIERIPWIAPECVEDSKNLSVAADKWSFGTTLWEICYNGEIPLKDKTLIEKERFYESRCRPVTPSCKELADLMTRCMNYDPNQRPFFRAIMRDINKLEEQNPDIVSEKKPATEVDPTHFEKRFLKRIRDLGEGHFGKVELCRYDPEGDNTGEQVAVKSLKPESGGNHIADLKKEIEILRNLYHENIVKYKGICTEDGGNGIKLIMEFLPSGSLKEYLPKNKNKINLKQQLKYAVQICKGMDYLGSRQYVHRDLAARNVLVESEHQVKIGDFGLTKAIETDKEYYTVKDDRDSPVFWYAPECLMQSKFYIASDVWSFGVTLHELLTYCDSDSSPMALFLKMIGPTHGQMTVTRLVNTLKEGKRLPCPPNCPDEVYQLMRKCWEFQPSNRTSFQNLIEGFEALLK", "assay": "Biochemical JAK kinase assay (LanthaScreen), JAK1", "protocol": "as §1, with “equation.” for “equation. Test compounds having a lower Ki value or higher pKi value in the four JAK assays show greater inhibition of JAK activity.”"}}, "data": [{"smiles": "CCc1cc(O)c(F)cc1-c1ccc2c(-c3nc4c([nH]3)CN(CC)[C@H](C(=O)N3CC(N(C)C)C3)C4)n[nH]c2c1", "note": "[Compound C-2, (S)-(3-(dimethylamino)azetidin-1-yl)(5-ethyl-2-(6-(2-ethyl-5-fluoro-4-hydroxyphenyl)-1H-indazol-3-yl)-4,5,6,7-tetrahydro-3H-imidazo[4,5-c]pyridin-6-yl)methanone]", "values": [{"measurement": "IC50", "setting": "[1]", "value": 2, "unit": "nM"}, {"measurement": "JAK2 pKi", "setting": "JAK2", "value": 10.9}, {"measurement": "Tyk2 pKi", "setting": "Tyk2", "value": 9.4}, {"measurement": "JAK3 pKi", "setting": "JAK3", "value": 9.5}, {"measurement": "Compound Remaining at 60 min (%)", "setting": "Lung S9 metabolism", "value": 6, "unit": "%"}, {"measurement": "Sulfate Appearance", "setting": "Lung S9 metabolism", "value": "Yes"}, {"measurement": "microsomal CLint at 1 µM", "setting": "Lung S9 metabolism", "value": 46.7, "unit": "µL/min/mg"}]}, {"smiles": "CCCN1Cc2[nH]c(-c3n[nH]c4cc(-c5cc(F)c(O)cc5CC)ccc34)nc2C[C@H]1C(=O)N1CC(N(C)C)C1", "note": "[Compound C-5, (S)-(3-(dimethylamino)azetidin-1-yl)(2-(6-(2-ethyl-5-fluoro-4-hydroxyphenyl)-1H-indazol-3-yl)-5-propyl-4,5,6,7-tetrahydro-3H-imidazo[4,5-c]pyridin-6-yl)methanone]", "values": [{"measurement": "IC50", "setting": "[1]", "value": 2, "unit": "nM"}, {"measurement": "JAK2 pKi", "setting": "JAK2", "value": 10.8}, {"measurement": "JAK1 pKi", "setting": "JAK1", "value": 10.1}, {"measurement": "Tyk2 pKi", "setting": "Tyk2", "value": 9.4}, {"measurement": "JAK3 pKi", "setting": "JAK3", "value": 10.0}, {"measurement": "Compound Remaining at 60 min (%)", "setting": "Lung S9 metabolism", "value": 5, "unit": "%"}, {"measurement": "Sulfate Appearance", "setting": "Lung S9 metabolism", "value": "Yes"}, {"measurement": "microsomal CLint at 1 µM", "setting": "Lung S9 metabolism", "value": 50.5, "unit": "µL/min/mg"}]}]}
